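Cells were grown in 96-well plates and exposed to each compound for 48 hours at five concentrations; endpoints were interpolated linearly between bracketing concentrations, or set to the highest concentration if not reached. GI50 marks 50% less growth.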 Active and inactive are the calls of the source. Rule as the data show it: active = GI50 up to about 1.1 µM and inactive = higher.
How the values were obtained:
Assay in all cases: DTP human tumour cell line panel, 48 h
Hs-578T = test system: Hs-578T
MDA-MB-231 = test system: MDA-MB-231
MOLT-4 = test system: MOLT-4
ACHN = test system: ACHN
UACC-62 = test system: UACC-62
IGROV-1 = test system: IGROV-1
T47D = test system: T47D
EKVX = test system: EKVX
K562 = test system: K562
A549 = test system: A549
HOP-92 = test system: HOP-92
LOX IMVI = test system: LOX IMVI
SF-268 = test system: SF-268
DU-145 = test system: DU-145
A498 = test system: A498
U-251 = test system: U-251
HCC 2998 = test system: HCC 2998
NCI/ADR-RES = test system: NCI/ADR-RES
SF-539 = test system: SF-539
SK-OV-3 = test system: SK-OV-3

SMILES	GI50 (Hs-578T)	GI50 (MDA-MB-231)	GI50 (MOLT-4)	GI50 (ACHN)	GI50 (UACC-62)	GI50 (IGROV-1)	GI50 (T47D)	GI50 (EKVX)	GI50 (K562)	GI50 (A549)	GI50 (HOP-92)	GI50 (LOX IMVI)	GI50 (SF-268)	GI50 (DU-145)	GI50 (A498)	GI50 (U-251)	GI50 (HCC 2998)	GI50 (NCI/ADR-RES)	GI50 (SF-539)	GI50 (SK-OV-3)
O=C1CN2CCN(CC2)CC(=O)Nc2ccc(cc2)S(=O)(=O)c2ccc(cc2)NC(=O)CN2CCN(CC2)CC(=O)Nc2ccc(cc2)S(=O)(=O)c2ccc(cc2)N1	> 100 µM (inactive)	16.1 µM (inactive)	6.81 µM (inactive)	66.4 µM (inactive)	40.1 µM (inactive)	13.8 µM (inactive)	67.6 µM (inactive)	> 100 µM (inactive)	15.8 µM (inactive)	> 63.2 µM (inactive)	> 100 µM (inactive)	11 µM (inactive)	19 µM (inactive)	51.6 µM (inactive)	> 100 µM (inactive)	13.7 µM (inactive)	> 61.9 µM (inactive)	37.3 µM (inactive)	23.3 µM (inactive)	> 100 µM (inactive)
CC(=O)c1sc2c(c1OC(=O)c1cccs1)c(=O)n(-c1ccccc1)c(=S)n2-c1ccccc1	3.66 µM (inactive)	14.4 µM (inactive)	20.3 µM (inactive)	3.54 µM (inactive)	19.9 µM (inactive)	18.6 µM (inactive)	15.9 µM (inactive)	25.1 µM (inactive)	35.4 µM (inactive)	62.5 µM (inactive)	5.24 µM (inactive)	4.84 µM (inactive)	6.07 µM (inactive)	26.8 µM (inactive)	4.71 µM (inactive)	5.86 µM (inactive)	39.4 µM (inactive)	15.2 µM (inactive)	2.41 µM (inactive)	21.9 µM (inactive)
CCOC(=O)C1=C(C)N(C)C(=S)NC1c1cccc(O)c1 (stereo not given)	46.7 µM (inactive)	46.6 µM (inactive)	37.8 µM (inactive)	71 µM (inactive)	63.7 µM (inactive)	21.1 µM (inactive)	18.7 µM (inactive)	24.1 µM (inactive)	19.7 µM (inactive)	36.6 µM (inactive)	22.9 µM (inactive)	70.3 µM (inactive)	62.5 µM (inactive)	57.3 µM (inactive)	24.7 µM (inactive)	34.8 µM (inactive)	34 µM (inactive)	18.7 µM (inactive)	53.2 µM (inactive)	36.4 µM (inactive)
Cc1ccc(Cc2n[nH]c(=O)n2/N=C\CC/C=N\n2c(Cc3ccc(C)cc3)n[nH]c2=O)cc1	15.5 µM (inactive)	31.3 µM (inactive)	19.1 µM (inactive)	47.1 µM (inactive)	25.8 µM (inactive)	33.3 µM (inactive)	38.6 µM (inactive)	33.7 µM (inactive)	96.8 µM (inactive)	> 100 µM (inactive)	25.1 µM (inactive)	16.9 µM (inactive)	18 µM (inactive)	> 100 µM (inactive)	90.4 µM (inactive)	19.2 µM (inactive)	> 100 µM (inactive)	21.1 µM (inactive)	3.99 µM (inactive)	36.6 µM (inactive)
Cc1cc(NC(=O)NC(=O)c2ccccc2N(C)C)ccc1Oc1ncc(Br)cn1	0.267 µM (active)	1.45 µM (inactive)	1.08 µM (active)	3.05 µM (inactive)	0.301 µM (active)	1.46 µM (inactive)	1.61 µM (inactive)	1.96 µM (inactive)	0.119 µM (active)	0.705 µM (active)	1.3 µM (inactive)	0.369 µM (active)	0.977 µM (active)	1.06 µM (active)	0.29 µM (active)	0.497 µM (active)	0.53 µM (active)	0.361 µM (active)	0.267 µM (active)	0.437 µM (active)

Source: ChEMBL document CHEMBL1201862, “PubChem BioAssay data set” (2004)
